Data published in ChEMBL document CHEMBL5715954, “Silencing c-Myc translation as a therapeutic strategy through targeting PI3Kδ and CK1ε in hematological malignancies” (Blood, 2017).
Activity calls are given as the source filed them. The rule behind the calls is not given here.

What was measured:
[1] = target: T1, Casein kinase I isoform epsilon (Homo sapiens, UniProt P49674); assay: Inhibition of CK1epsilon in human OCILY7 cells transfected with c-myc-5'-UTR-luciferase construct assessed as reduction in c-myc translation at 15 uM incubated for 24 hrs by luciferase reporter gene assay; type: cell-based
Target sequence in this assay (P49674 whole entry, looked up, canonical isoform): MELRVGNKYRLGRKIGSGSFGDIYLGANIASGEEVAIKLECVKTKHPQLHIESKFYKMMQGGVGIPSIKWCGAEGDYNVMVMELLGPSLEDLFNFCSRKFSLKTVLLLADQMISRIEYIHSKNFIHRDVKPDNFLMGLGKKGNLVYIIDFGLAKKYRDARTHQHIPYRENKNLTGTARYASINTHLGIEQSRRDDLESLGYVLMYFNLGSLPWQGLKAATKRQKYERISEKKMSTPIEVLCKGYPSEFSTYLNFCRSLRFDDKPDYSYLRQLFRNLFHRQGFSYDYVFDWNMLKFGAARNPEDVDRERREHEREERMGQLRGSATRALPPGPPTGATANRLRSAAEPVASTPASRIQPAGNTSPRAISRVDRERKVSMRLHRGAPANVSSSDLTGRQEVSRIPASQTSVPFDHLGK

[2] = target: T1, Casein kinase I isoform epsilon; assay: Inhibition of CK1epsilon in human LY7 cells assessed as reduction in CK1epsilon autophosphorylation at 1 uM preincubated for 1 hr followed by addition of PP2A inhibitor calyculin A and measured after 15 to 60 mins by Western blot analysis; type: cell-based; settings: time lower 75.0 min, time upper […]
Target sequence in this assay (P49674 whole entry, looked up, canonical isoform): as above

[3] = target: T1, Casein kinase I isoform epsilon; assay: Inhibition of recombinant human full-length N-terminal GST-tagged CK1epsilon expressed in baculovirus infected Sf9 insect cells using casein as substrate measured after 60 mins by ADP-glo kinase assay
Target sequence in this assay (P49674 whole entry, canonical isoform): as the sequence (P49674 whole entry, looked up, canonical isoform) above

[4] = target: T1, Casein kinase I isoform epsilon; assay: Inhibition of CK1epsilon in human LY7 cells assessed as reduction in 4E-BP1 phosphorylation at 25 uM incubated for 24 hrs in presence of […] inhibitor PF4800567 by Western blot analysis; type: cell-based
Target sequence in this assay (P49674 whole entry, looked up, canonical isoform): as above

[5] = target: T1, Casein kinase I isoform epsilon; assay: Inhibition of CK1epsilon in human LY7 cells assessed as reduction in c-Myc expression at 25 uM incubated for 24 hrs in presence of […] inhibitor PF4800567 by Western blot analysis; type: cell-based
Target sequence in this assay (P49674 whole entry, looked up, canonical isoform): as above

[6] = target: T1, Casein kinase I isoform epsilon; assay: Inhibition of CK1epsilon in human LY7 cells assessed as reduction in c-Myc expression at 15 to 50 uM measured after 24 hrs by Western blot analysis; type: cell-based; settings: dose 15-50 µM
Target sequence in this assay (P49674 whole entry, looked up, canonical isoform): as above

[7] = target: Serine/threonine-protein phosphatase 2A catalytic subunit alpha isoform (Homo sapiens) (UniProt P67775); assay: Inhibition of PP2A in human LY7 cells assessed as increase in CK1epsilon autophosphorylation by Western blot analysis; type: cell-based; settings: time lower […], time upper 30.0 min
[8] = target: T1, Casein kinase I isoform epsilon; assay: Inhibition of recombinant human full-length N-terminal GST-tagged CK1epsilon expressed in baculovirus infected Sf9 insect cells at 50 uM using casein as substrate measured after 60 mins by ADP-glo kinase assay relative to control
Target sequence in this assay (P49674 whole entry, looked up, canonical isoform): as above

[9] = target: T1, Casein kinase I isoform epsilon; assay: Inhibition of CK1epsilon in human LY7 cells assessed as reduction in CK1epsilon autophosphorylation at 10 to 25 uM preincubated for 1 hr followed by addition of PP2A inhibitor calyculin A and measured after 15 to 60 mins by Western blot analysis; type: cell-based; settings: dose 10-25 µM, time lower 75.0 min, time upper […]
[10] = target: Myc proto-oncogene protein (Homo sapiens) (UniProt P01106); assay: Inhibition of c-Myc in human LY7 cells assessed as reduction in E2F1 expression at 5 nM incubated for 24 hrs by Western blot analysis; type: cell-based
[11] = target: Myc proto-oncogene protein (Homo sapiens) (UniProt P01106); assay: Inhibition of c-Myc in human LY10 cells assessed as reduction in eIF4B expression at 2 nM incubated for 24 hrs by Western blot analysis; type: cell-based
[12] = target: Myc proto-oncogene protein (Homo sapiens) (UniProt P01106); assay: Inhibition of c-Myc in human LY7 cells assessed as reduction in eIF4B expression at 5 nM incubated for 24 hrs by Western blot analysis; type: cell-based
[13] = target: Myc proto-oncogene protein (Homo sapiens) (UniProt P01106); assay: Inhibition of c-Myc in human LY10 cells assessed as reduction in E2F1 expression at 2 nM incubated for 24 hrs by Western blot analysis; type: cell-based

Chain of Myc proto-oncogene protein (Homo sapiens) (P01106 whole entry): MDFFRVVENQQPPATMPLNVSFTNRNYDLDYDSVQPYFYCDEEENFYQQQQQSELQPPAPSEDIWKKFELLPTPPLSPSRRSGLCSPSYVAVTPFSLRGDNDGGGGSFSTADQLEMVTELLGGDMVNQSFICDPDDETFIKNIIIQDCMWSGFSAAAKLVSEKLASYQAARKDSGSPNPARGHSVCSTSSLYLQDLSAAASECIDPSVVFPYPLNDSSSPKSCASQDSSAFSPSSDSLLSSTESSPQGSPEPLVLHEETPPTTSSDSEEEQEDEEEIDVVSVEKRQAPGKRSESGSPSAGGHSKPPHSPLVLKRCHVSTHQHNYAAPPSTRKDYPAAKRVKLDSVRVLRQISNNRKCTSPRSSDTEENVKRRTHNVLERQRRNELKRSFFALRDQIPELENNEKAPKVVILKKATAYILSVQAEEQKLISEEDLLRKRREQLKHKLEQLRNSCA
Chain of Serine/threonine-protein phosphatase 2A catalytic subunit alpha isoform (Homo sapiens) (P67775 whole entry, canonical isoform): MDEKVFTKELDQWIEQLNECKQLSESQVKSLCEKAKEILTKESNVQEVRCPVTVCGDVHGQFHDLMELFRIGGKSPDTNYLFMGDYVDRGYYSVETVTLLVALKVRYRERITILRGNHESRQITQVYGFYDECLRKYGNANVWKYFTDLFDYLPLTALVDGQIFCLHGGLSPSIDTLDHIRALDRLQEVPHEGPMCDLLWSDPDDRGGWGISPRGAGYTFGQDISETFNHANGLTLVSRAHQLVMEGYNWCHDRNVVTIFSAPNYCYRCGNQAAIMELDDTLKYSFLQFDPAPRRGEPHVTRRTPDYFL

| Structure (SMILES) | EC50 [3] [µM] | inhibition [10] | inhibition [11] | inhibition [12] | inhibition [13] | also measured |
| --- | --- | --- | --- | --- | --- | --- |
| Nc1ncnc2c1c(COc1cccc(Cl)c1)nn2C1CCOCC1 | 0.0074 |  |  |  |  | inhibition [1]: inactive; inhibition [2]: Active; inhibition [4]: Active; inhibition [5]: Active; inhibition [6]: Active |
| COC[C@@H]([C@H](O)[C@H](O)C(=O)NCC[C@H](C)c1nc(/C=C/C[C@@H]2O[C@]3(C[C@@H](O)[C@@H]2C)O[C@H]([C@H](C[C@H](O)[C@H](C)[C@H](O)[C@H](C)/C=C(C)/C(C)=C/C=C/C(C)=C\C#N)OC)[C@H](OP(=O)(O)O)C3(C)C)co1)N(C)C |  |  |  |  |  | inhibition [7]: Dose-Dependent Effect |
| CC(C)C[C@H](NC(=O)[C@H](Cc1ccccc1)NC(=O)c1cnccn1)B(O)O |  | inactive | inactive | inactive | inactive |  |
| CC(C)C[C@H](NC(=O)[C@H](CCc1ccccc1)NC(=O)CN1CCOCC1)C(=O)N[C@@H](Cc1ccccc1)C(=O)N[C@@H](CC(C)C)C(=O)[C@@]1(C)CO1 |  | inactive | inactive | inactive | inactive |  |

The next lines start with results.

| EC50 [3] [µM] | inhibition [10] | inhibition [11] | inhibition [12] | inhibition [13] | Structure (SMILES) | also measured |
| --- | --- | --- | --- | --- | --- | --- |
| 81.2 |  |  |  |  | CC[C@@H](c1nc2cccc(F)c2c(=O)n1-c1ccccc1)n1nc(-c2ccc(OC(C)C)c(F)c2)c2c(N)ncnc21 | inhibition [8]: < 50% |
| 9.36 |  |  |  |  | CC(C)Oc1ccc(-c2nn([C@@H](C)c3nc4cccc(F)c4c(=O)n3-c3ccccc3)c3ncnc(N)c23)cc1F | inhibition [9]: Active |
